Assay results: ChEMBL document CHEMBL3588753, “Recent progress in the drug development of coumarin derivatives as potent antituberculosis agents” (2015)
In brackets after ≈: the same amount, converted by molar mass.

System: Mycobacterium tuberculosis variant bovis
Experiment: Antimycobacterial activity against Mycobacterium bovis
Assay type: functional

COC(=O)C1C(=O)Oc2ccc(Br)cc2C1C(=O)NC1CCCCC1 (stereo not drawn)
MIC: 15.6 µg/mL (≈ 38 µM)

CC(C)COC(=O)C1C(=O)Oc2ccccc2C1C(=O)NC1CCCCC1 (stereo not drawn)
MIC: 15.6 µg/mL (≈ 41.8 µM)

O=C(OCc1ccc(F)cc1)C1C(=O)Oc2ccc(Br)cc2C1C(=O)NC1CCCCC1 (stereo not drawn)
MIC: 15.6 µg/mL (≈ 30.9 µM)
